Data on 1 compound can be found in patent publication US10568961B2, “Photosensitising composition and its uses” (DENTSPLY SIRONA Inc., priority 2008, dated 2020).

Assay type in all cases: cell-based, Enterococcus faecalis
The test system of data set [1] is E. faecalis bacteria (ATCC 29212) biofilm. The experiment in a line: Disinfection of four-week old biofilm in root canal (CFU from dentine shavings). The source says: The institutional review board of the National University of Singapore approved the collection and use of extracted human teeth for this experiment. Thirty single rooted teeth maintained in Phosphate Buffer Saline (PBS) with similar shape and sizes were selected for the following experiment. The crown (at the level of Cemento-Enamel Junction) and the […] of the root were removed using a microslice machine (Metal Research, England) to obtain standard sized specimens of 8 mm length. The prepared tooth specimens were selected for the experiments after inspecting for any signs of cracks or damages on the cementum. The remnants of the pulp tissue were removed from the root canal using a barbed broach and the tooth specimens were autoclaved before further experiments.
A single colony of E. faecalis bacteria (ATCC 29212) culture was incubated in All Culture Broth (AC Broth) for 8 hours. The optical density of the culture was adjusted to 1 at 600 nm that corresponds to 10^9 cells/mL. The sterilized tooth specimens were placed in the AC broth (50 mL) with the bacterial culture and incubated in an orbital incubator (120 rpm) at 37° C. under aerobic conditions. The culture medium was replenished once in every two days to remove dead cells and to ensure proper growth of bacteria. After four weeks of incubation, the tooth specimens were subjected to the following experiment.
This experiment was conducted to observe the efficiency of different antimicrobial treatments on a matured root canal biofilm. After the specific incubation period, the tooth specimens were removed and washed with sterile PBS. The specimens were randomly divided into five experimental groups and treated accordingly.
Group 2 (conventional PDT): The tooth specimens in this group were subjected to conventional PDT. The root canals of the specimens were filled with 100 μM of MB (photosensitization) for 20 minutes and was irradiated immediately with 660 nm laser light for 20 minutes to attain a total energy level of 36 J (n=6). […]

Data set [2] relates to E. faecalis biofilm in root canals. The experiment in a line: PDT of endodontic bacterial biofilm ex vivo (ten-week biofilm in tooth specimens). Here is the method: Thirty tooth blocks were prepared by removing the crown at the level of cementoenamel junction and the apical third of the root canal (˜8 mm long). All specimens were instrumented using K-files with sizes from #20 to #40. The smear layer formed during mechanical shaping was removed by rinsing the root canal with sodium hypochlorite (1%) followed by EDTA (100 mM). The prepared single-rooted tooth specimens were incubated with 50 mL of AC media inoculated with a single colony of E. faecalis as described elsewhere (George S and Kishen A, J Biomed Opt, 2000). Incubation was carried out for ten weeks at 37° C. with periodical replacement of growth media under constant shaking (120 rpm). After the incubation period, the tooth specimens were randomly divided into five groups and were treated as follows:
Group 2—Root canal-treatment (RCT) group (n=5): root canals were subjected to conventional cleaning and shaping procedures performed by using a sequence of endodontic file sizes (#25 to #50 K-files; Maillefer Instruments SA, Switzerland). The root canals were repeatedly irrigated with 5 mL of 5.2% sodium hypochlorite before and after instrumentation step using a 28-G needle and a syringe. Ethylenediaminetetraacetic acid (EDTA) 17% was also used at the end of instrumentation to remove the smear layer. Group 3—Conventional PDT group (n=5): root canals were subjected to minimal instrumentation (using #25 K file). These root canals were filled with 100 μM MB in water and were irradiated with 664 nm laser light with a total energy of 31.84 J/cm^2. Group 4—PF4 group (n=5): root canals were subjected to minimal instrumentation (using #25 K file) followed by PDT using PF4. Here, the root canals were filled with PF4 and were left in the dark for 10 minutes. After the sensitization period, the excess of the photosensitizing formulation was partially replaced with perfluorodecahydro naphthalene and the root canals were irradiated with 664 nm diode laser with a total fluence of 31.84 J/cm^2. Group 5—RCT+PF4 group (n=5): root canals were subjected to the conventional root canal disinfection procedure similar to the conventional RCT group (i.e. Group 2) followed by PDT using PF4.
After the specified treatment, the tooth-specimens were split open mesiodistally, and dentine shavings were collected using a round bur of 1 mm diameter held perpendicular to the root canal surface. The dentine shavings were collected at midpoint (coronoapically) from the two halves (buccal and lingual) of each root (n=12). […] Colony-forming units (CFU) were enumerated on the subsequent day, and the mean value of log10 number of bacteria and the standard error were calculated. […] The numbers of tubes positive for bacterial cells were counted against the total number of tubes.

In data set [3] the test system is E. faecalis biofilms grown on a glass cover slip. The experiment in a line: Structural damage to biofilm by PDT in vitro (CLSM, live/dead stain). The settings on record: seven-day biofilm, 664 nm, 31.84 J/cm^2. Here is the method:
The structural damage to biofilm caused by PDT was assessed on E. faecalis biofilms grown on a glass cover slip that was fixed covering a grove (6 mm diameter) made at the bottom part of a petri dish. E. faecalis cell suspension (100 μL containing ˜10^7 cells/mL) prepared from overnight grown culture in All-Culture (AC) media was added onto the saliva-coated glass-cover slip. Six petri dishes containing the biofilm were tested in each group. After seven days of incubation with periodical replacement of growth media, the biofilm was washed and photosensitised with either 100 μM MB in water or PF4 (MB in an emulsion produced by mixing perfluorodecahydro naphthalene:H2O2:triton-X100 in the ratio 75:24.5:0.5). These biofilms were incubated in the dark for ten minutes, after which the excess of the photosensitising formulation was partially replaced with perfluorodecahydro naphthalene and exposed to irradiation using 664 nm diode laser with a total fluence of 31.84 J/cm^2.
After the PDT, the washed biofilms were stained using 20 μL PBS containing 2 μL of live/dead stain (Molecular Probes, Eugene, Oreg., USA) and were observed using confocal laser scanning microscopy (CLSM). […] The optical sections of the biofilm structure were recorded and analyzed by using FluoView software (Olympus Corporation, Tokyo, Japan).

Setting [4] is: after 4 hours of enrichment, compared with the control group.

The structures appear in SMILES notation.

Regarding `CN(C)c1ccc2nc3ccc(=[N+](C)C)cc-3sc2c1` [MB in water, Methylene blue], in data set [1], the “inactivation of bacteria” value was “failed to show significant bacterial reduction”. Further, in data set [1] (compared to control group), the “difference in bacterial count” value is listed as 0.38 log10. Moreover, the bacterial kill in data set [1] (corresponds to log10 difference vs control group) came to 59%. Besides, in data set [2] (setting [4]), the “difference in the mean viable count” value was found to be 1.5 log10 and the “reduction in viable bacteria” value worked out at 96.89%. In addition, the “% of tooth specimens positive for bacteria after 24 hours of enrichment” value in data set [2] (ten-week biofilm, dentine shavings) worked out at 100%. Also, in data set [2] (ten-week biofilm, dentine shavings, control group 7.147), the “CFU (log10) after 4 hours of enrichments (±SD)” value is recorded as 5.639 (±0.066) log10. Also, the “viability of biofilm bacteria after PDT” value in data set [3] (live/dead stain) is reported as “increased the proportion of dead cells”. Besides, the “biofilm thickness after PDT” value in data set [3] (untreated biofilm 17 μm) turned out to be 12 μm.
